Twelve compounds from US20250296971A1, “GASTRIC INHIBITORY PEPTIDE RECEPTOR LIGANDS” (priority 2021, published 2025) can be followed below.

*1 amine or outer side, *2 acyl side, *3 side chain or, on linkers, in order; H or OH if unused. Where a SMILES comes first, the peptide text is derived from it. Bridges are numbered along the chain shown (N, C = ends). [ ]: non-standard residue; d: D form. The star is where a group is joined. X16 = NC(=O)[C@H](CCCCNC(=O)CN1CCN2CCN3CCN(CC1)CC(=O)[O][Lu]([O]C(=O)C2)[O]C(=O)C3)NC(=O)CCC(=O)NCCCOCCOCCOCCCN*; X11 = O=C(CN1CCN2CCN3CCN(CC1)CC(=O)[O][In]([O]C(=O)C2)[O]C(=O)C3)NCCCOCCOCCOCCCN*; X13 = O=C(CN1CCN2CCN3CCN(CC1)CC(=O)[O][Lu]([O]C(=O)C2)[O]C(=O)C3)NCCCOCCOCCOCCCN*; DOTA(Lu) = O=C1CN2CCN3CCN(CC(=O)*)CCN(CC2)CC(=O)[O][Lu]([O]1)[O]C(=O)C3; Trp(5-Cl) = N[C@@H](Cc1c[nH]c2ccc(Cl)cc12)C(=O)O; mXylylene = c1cc(C[*:1])cc(C[*:2])c1; X6 = c1cc(CSCCN[*:2])nc(C[*:1])c1; X7 = c1cc(CSCCN[*:2])cc(C[*:1])c1; Hyp = O=C(O)[C@@H]1C[C@@H](O)CN1; X1 = O=C(CN1CCC(N[*:1])CC1)[*:2]; Suc = O=C(CCC(=O)[*:2])[*:1]; αMeS = C[C@](N)(CO)C(=O)O; Thp = NC1(C(=O)O)CCOCC1; Aib = CC(C)(N)C(=O)O; Sar = CNCC(=O)O

For the first test, the target named is T1, GIPR (CHO-K1-hGIPR cells) (Homo sapiens, UniProt P48546).
T1 construct: host or cells: CHO-K1
T1 sequence (P48546 22-466): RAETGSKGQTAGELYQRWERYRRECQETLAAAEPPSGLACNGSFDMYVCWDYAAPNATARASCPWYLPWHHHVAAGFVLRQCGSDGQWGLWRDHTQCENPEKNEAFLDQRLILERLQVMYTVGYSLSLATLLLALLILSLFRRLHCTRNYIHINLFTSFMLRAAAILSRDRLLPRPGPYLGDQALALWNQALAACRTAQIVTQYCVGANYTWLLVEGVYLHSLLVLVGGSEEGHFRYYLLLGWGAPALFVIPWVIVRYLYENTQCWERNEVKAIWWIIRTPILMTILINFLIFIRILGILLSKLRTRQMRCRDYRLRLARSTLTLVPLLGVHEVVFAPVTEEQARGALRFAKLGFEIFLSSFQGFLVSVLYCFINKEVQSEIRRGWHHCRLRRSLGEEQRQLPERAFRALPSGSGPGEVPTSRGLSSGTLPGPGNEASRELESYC
Nature of the test: FACS binding assay. The conditions noted are these: competition with 20 nM GIP-057, 4° C., 1 hour, read-out: pIC50 Category (converted). The method, boiled down: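 Steps: detach CHO-K1-hGIPR cells (Accutase); wash in PBS/1% FCS; adjust to 500.000 cells per mL; wash ice-cold; incubate APC-streptavidin 1 μg/mL, 30 min on ice; wash twice; acquire on flow cytometer; fit MFI-concentration data with a four-parameter logistic model.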
A general note: A flow cytometer gives signals particle by particle.
As to `CC[C@H](C)[C@@H]1NC(=O)[C@H](CC(C)C)NC(=O)C(C)(C)NC(=O)[C@@H](NC(=O)[C@@H](CC(C)C)NC(=O)[C@H](CCC(=O)O)NC(=O)[C@@H]2CCCN2C(=O)[C@H](Cc2c[nH]c3ccc(Cl)cc23)NC(=O)[C@H](Cc2c[nH]c3ccccc23)NC(=O)[C@H](CC(=O)O)NC(=O)CCC(=O)NCCCOCCOCCOCCCNC(=O)CN2CCN3CCN4CCN(CC2)CC(=O)[O][In]([O]C(=O)C3)[O]C(=O)C4)CSCc2cccc(c2)CSCCNC1=O` [GIP-148, InDOTA-Ttds-Asp-Trp-5Clw-Pro-Glu-leu-[Cys(3MeBn)-Aib-Leu-Ile-AET]] ({X11-Suc}-DW[Trp(5-Cl)]PE[dL]C[Aib]LI; linker 7-C via X7), the IC50 was under 10 nM. Turning to `CC[C@H](C)[C@@H]1NC(=O)[C@H](CC(C)C)NC(=O)[C@](C)(CO)NC(=O)[C@@H](NC(=O)[C@@H](CC(C)C)NC(=O)[C@H](CCC(=O)O)NC(=O)[C@@H]2CCCN2C(=O)[C@H](Cc2c[nH]c3ccc(Cl)cc23)NC(=O)[C@H](Cc2c[nH]c3ccccc23)NC(=O)[C@H](CC(=O)O)NC(=O)CCC(=O)NCCCOCCOCCOCCCNC(=O)CN2CCN3CCN4CCN(CC2)CC(=O)[O][In]([O]C(=O)C3)[O]C(=O)C4)CSCc2cccc(c2)CSCCNC1=O` [GIP-149, InDOTA-Ttds-Asp-Trp-5Clw-Pro-Glu-leu-[Cys(3MeBn)-Ams-Leu-Ile-AET]] ({X11-Suc}-DW[Trp(5-Cl)]PE[dL]C[αMeS]LI; linker 7-C via X7), the IC50 is under 10 nM.

In the case of `CC[C@H](C)[C@@H]1NC(=O)[C@H](CC(C)C)NC(=O)C2(CCOCC2)NC(=O)[C@@H](NC(=O)[C@@H](CC(C)C)NC(=O)[C@H](CCC(=O)O)NC(=O)[C@@H]2CCCN2C(=O)[C@H](Cc2c[nH]c3ccc(Cl)cc23)NC(=O)[C@H](Cc2c[nH]c3ccccc23)NC(=O)[C@H](CC(=O)O)NC(=O)CCC(=O)NCCCOCCOCCOCCCNC(=O)CN2CCN3CCN4CCN(CC2)CC(=O)[O][In]([O]C(=O)C3)[O]C(=O)C4)CSCc2cccc(c2)CSCCNC1=O` [GIP-150, InDOTA-Ttds-Asp-Trp-5Clw-Pro-Glu-leu-[Cys(3MeBn)-Thp-Leu-Ile-AET]] ({X11-Suc}-DW[Trp(5-Cl)]PE[dL]C[Thp]LI; linker 7-C via X7), the IC50 was under 10 nM.

Consider `CC[C@H](C)[C@@H]1NC(=O)[C@H](CC(C)C)NC(=O)C(C)(C)NC(=O)[C@@H](NC(=O)[C@@H](CC(C)C)NC(=O)[C@H](CCC(=O)O)NC(=O)CN(C)C(=O)[C@H](Cc2c[nH]c3ccc(Cl)cc23)NC(=O)[C@H](Cc2c[nH]c3ccccc23)NC(=O)[C@H](CC(=O)O)NC(=O)CCC(=O)NCCCOCCOCCOCCCNC(=O)CN2CCN3CCN4CCN(CC2)CC(=O)[O][In]([O]C(=O)C3)[O]C(=O)C4)CSCc2cccc(c2)CSCCNC1=O` [GIP-152, InDOTA-Ttds-Asp-Trp-5Clw-Nmg-Glu-leu-[Cys(3MeBn)-Aib-Leu-Ile-AET]] ({X11-Suc}-DW[Trp(5-Cl)][Sar]E[dL]C[Aib]LI; linker 7-C via X7), for which the IC50 is under 10 nM.

In the case of `CC[C@H](C)[C@@H]1NC(=O)[C@H](CC(C)C)NC(=O)C(C)(C)NC(=O)[C@@H](NC(=O)[C@@H](CC(C)C)NC(=O)[C@H](CCC(=O)O)NC(=O)[C@@H]2CCCN2C(=O)[C@H](Cc2c[nH]c3ccc(Cl)cc23)NC(=O)[C@H](Cc2c[nH]c3ccccc23)NC(=O)[C@H](CC(=O)O)NC(=O)CCC(=O)NCCCOCCOCCOCCCNC(=O)CN2CCN3CCN4CCN(CC2)CC(=O)[O][In]([O]C(=O)C3)[O]C(=O)C4)CSCc2cccc(n2)CSCCNC1=O` [GIP-154, InDOTA-Ttds-Asp-Trp-5Clw-Pro-Glu-leu-[Cys(2Lut)-Aib-Leu-Ile-AET]] ({X11-Suc}-DW[Trp(5-Cl)]PE[dL]C[Aib]LI; linker 7-C via X6), the IC50 was under 10 nM.

Staying with this test, now noted: pIC50 Category, competition with 20 nM GIP-057, 4° C., 1 hour.
Regarding `CC[C@H](C)[C@@H]1NC(=O)[C@H](CC(C)C)NC(=O)C(C)(C)NC(=O)[C@@H](NC(=O)[C@@H](CC(C)C)NC(=O)[C@H](CCC(=O)O)NC(=O)[C@@H]2CCCN2C(=O)[C@H](Cc2c[nH]c3ccc(Cl)cc23)NC(=O)[C@H](Cc2c[nH]c3ccccc23)NC(=O)[C@H](CC(=O)O)NC(C)=O)CSCc2cccc(c2)CSC[C@@H](C(=O)NCCCOCCOCCOCCCNC(=O)CCC(=O)N[C@@H](CCCCNC(=O)CN2CCN3CCN4CCN(CC2)CC(=O)[O][Lu]([O]C(=O)C3)[O]C(=O)C4)C(N)=O)NC1=O` [GIP-156, Ac-Asp-Trp-5Clw-Pro-Glu-leu-[Cys(3MeBn)-Aib-Leu-Ile-Cys]-Ttds-Lys(LuDOTA)-NH2] (Ac-DW[Trp(5-Cl)]PE[dL]C[Aib]LIC-X16; linker 7-11 via mXylylene), the IC50 is under 10 nM. The same measure, in the same setting: next, `CC[C@H](C)[C@@H]1NC(=O)[C@H](CC(C)C)NC(=O)[C@](C)(CO)NC(=O)[C@@H](NC(=O)[C@@H](CC(C)C)NC(=O)[C@H](CCC(=O)O)NC(=O)[C@@H]2CCCN2C(=O)[C@H](Cc2c[nH]c3ccc(Cl)cc23)NC(=O)[C@H](Cc2c[nH]c3ccccc23)NC(=O)[C@H](CC(=O)O)NC(=O)CCC(=O)NCCCOCCOCCOCCCNC(=O)CN2CCN3CCN4CCN(CC2)CC(=O)[O][Lu]([O]C(=O)C3)[O]C(=O)C4)CSCc2cccc(c2)CSCCNC1=O` [GIP-157, LuDOTA-Ttds-Asp-Trp-5Clw-Pro-Glu-leu-[Cys(3MeBn)-Ams-Leu-Ile-AET]] ({X13-Suc}-DW[Trp(5-Cl)]PE[dL]C[αMeS]LI; linker 7-C via X7): under 10 nM; `CC[C@H](C)[C@@H]1NC(=O)[C@H](CC(C)C)NC(=O)C2(CCOCC2)NC(=O)[C@@H](NC(=O)[C@@H](CC(C)C)NC(=O)[C@H](CCC(=O)O)NC(=O)[C@@H]2CCCN2C(=O)[C@H](Cc2c[nH]c3ccc(Cl)cc23)NC(=O)[C@H](Cc2c[nH]c3ccccc23)NC(=O)[C@H](CC(=O)O)NC(=O)CCC(=O)NCCCOCCOCCOCCCNC(=O)CN2CCN3CCN4CCN(CC2)CC(=O)[O][Lu]([O]C(=O)C3)[O]C(=O)C4)CSCc2cccc(c2)CSCCNC1=O` [GIP-158, LuDOTA-Ttds-Asp-Trp-5Clw-Pro-Glu-leu-[Cys(3MeBn)-Thp-Leu-Ile-AET]] ({X13-Suc}-DW[Trp(5-Cl)]PE[dL]C[Thp]LI; linker 7-C via X7): under 10 nM; `CC[C@H](C)[C@@H]1NC(=O)[C@H](CC(C)C)NC(=O)C(C)(C)NC(=O)[C@@H](NC(=O)[C@@H](CC(C)C)NC(=O)[C@H](CCC(=O)O)NC(=O)[C@@H]2C[C@@H](O)CN2C(=O)[C@H](Cc2c[nH]c3ccc(Cl)cc23)NC(=O)[C@H](Cc2c[nH]c3ccccc23)NC(=O)[C@H](CC(=O)O)NC(=O)CCC(=O)NCCCOCCOCCOCCCNC(=O)CN2CCN3CCN4CCN(CC2)CC(=O)[O][Lu]([O]C(=O)C3)[O]C(=O)C4)CSCc2cccc(c2)CSCCNC1=O` [GIP-159, LuDOTA-Ttds-Asp-Trp-5Clw-Hyp-Glu-leu-[Cys(3MeBn)-Aib-Leu-Ile-AET]] ({X13-Suc}-DW[Trp(5-Cl)][Hyp]E[dL]C[Aib]LI; linker 7-C via X7): under 10 nM. `CC[C@H](C)[C@@H]1NC(=O)[C@H](CC(C)C)NC(=O)C(C)(C)NC(=O)[C@@H](NC(=O)[C@@H](CC(C)C)NC(=O)[C@H](CCC(=O)O)NC(=O)CN(C)C(=O)[C@H](Cc2c[nH]c3ccc(Cl)cc23)NC(=O)[C@H](Cc2c[nH]c3ccccc23)NC(=O)[C@H](CC(=O)O)NC(=O)CCC(=O)NCCCOCCOCCOCCCNC(=O)CN2CCN3CCN4CCN(CC2)CC(=O)[O][Lu]([O]C(=O)C3)[O]C(=O)C4)CSCc2cccc(c2)CSCCNC1=O` [GIP-160, LuDOTA-Ttds-Asp-Trp-5Clw-Nmg-Glu-leu-[Cys(3MeBn)-Aib-Leu-Ile-AET]] ({X13-Suc}-DW[Trp(5-Cl)][Sar]E[dL]C[Aib]LI; linker 7-C via X7) had an IC50 of under 10 nM. On the same count and under the same terms, next, `CC[C@H](C)[C@@H]1NC(=O)[C@H](CC(C)C)NC(=O)C(C)(C)NC(=O)[C@@H](NC(=O)[C@@H](CC(C)C)NC(=O)[C@H](CCC(=O)O)NC(=O)[C@@H]2CCCN2C(=O)[C@H](Cc2c[nH]c3ccc(Cl)cc23)NC(=O)[C@H](Cc2c[nH]c3ccccc23)NC(=O)[C@H](CC(=O)O)NC(=O)CN2CCC(NC(=O)CN3CCN4CCN5CCN(CC3)CC(=O)[O][Lu]([O]C(=O)C4)[O]C(=O)C5)CC2)CSCc2cccc(c2)CSCCNC1=O` [GIP-161, LuDOTA-APAc-Asp-Trp-5Clw-Pro-Glu-leu-[Cys(3MeBn)-Aib-Leu-Ile-AET]] ({DOTA(Lu)}-[X1]DW[Trp(5-Cl)]PE[dL]C[Aib]LI; linker 8-C via X7): under 10 nM; `CC[C@H](C)[C@@H]1NC(=O)[C@H](CC(C)C)NC(=O)C2(CCOCC2)NC(=O)[C@@H](NC(=O)[C@@H](CC(C)C)NC(=O)[C@H](CCC(=O)O)NC(=O)[C@@H]2C[C@@H](O)CN2C(=O)[C@H](Cc2c[nH]c3ccc(Cl)cc23)NC(=O)[C@H](Cc2c[nH]c3ccccc23)NC(=O)[C@H](CC(=O)O)NC(=O)CN2CCC(NC(=O)CN3CCN4CCN5CCN(CC3)CC(=O)[O][Lu]([O]C(=O)C4)[O]C(=O)C5)CC2)CSCc2cccc(n2)CSCCNC1=O` [GIP-162, LuDOTA-APAc-Asp-Trp-5Clw-Hyp-Glu-leu-[Cys(2Lut)-Thp-Leu-Ile-AET]] ({DOTA(Lu)}-[X1]DW[Trp(5-Cl)][Hyp]E[dL]C[Thp]LI; linker 8-C via X6): under 10 nM.
